Data taken from patent US6833383B2, “Methods for treating patients suffering from drug dependencies which lead to plasma melatonin deficiencies” (Neurim Pharmaceuticals (1991) Ltd., priority 1995, dated 2004).

What was measured:
[1] = urinary 6-sulfatoxymelatonin in benzodiazepine-dependent patient after melatonin therapy; format: in vivo, human; conditions: for Urinary 6-sulfatoxymelatonin after treatment: 2 weeks after stopping 1 mg controlled release melatonin daily
Method: (§1) The quality of sleep was assessed by an actigraph tracing which automatically monitors the bedtime sleep-wake pattern through a small device attached to the hand. […] Urine was collected every three hours for 36 hours and assayed for the diurnal secretion of […] melatonin.
(§2) Oral administration of a controlled release melatonin formulation in the form of tablets containing 1 mg melatonin (Neurim Pharmaceuticals, Israel) (made in accordance with the procedures set forth in example 1 for tablet SR-A) was initiated in order to correct for the deficiency and distortion of the melatonin rhythm. One tablet was administered daily at 8:30 p.m. The patient was asked to gradually reduce the number of benzodiazepine tablets taken each night.
(§3) The treatment was stopped and 2 weeks afterwards the patient's urine was collected again every three hours over a 36 hour period and assayed for 6-sulfatoxymelatonin. […] A three month follow-up confirmed that the patient maintained their quality of sleep and hardly suffered from headaches. After 6 months without treatment the patient's sleep quality began to deteriorate and melatonin therapy was resumed. The therapy restored their sleep quality and the patient continues to take 3 mg melatonin daily.

melatonin receptors = assay: 2-125I-melatonin binding to crude synaptosomal pellets of brains of rats treated for 21 days; format: in vivo, rat; conditions: 21 days treatment
Method: (§4) 20 male rats, maintained on a daily 14 hour light/10 hour darkness schedule, were divided into 4 groups, each consisting of 5 members:
(§5) Group 1 (the control group): rats were injected daily with 200 μl saline intraperitoneally for 21 days and were allowed to drink tap water.
(§6) They also were provided with regular tap water.
(§7) Group 3 (the melatonin group): rats were injected daily with 200 μl saline intraperitoneally. Their only available drinking water contained 0.4% by weight melatonin.
(§8) Each group was allowed food and water ad libitum. After 21 days the treatment was stopped. The animals were decapitated between 6:00 and 7:00 p.m. the next day, their brains were rapidly removed and crude synaptosomal pellets were prepared, and melatonin receptors were assessed using 2-^125I-melatonin, as described by Laudon, M., and N. Zisapel, FEBS Lett. 197:9 (1986). Benzodiazepine receptors were assessed by measuring the binding of radioactive benzodiazepine receptor probes ^3H-flunitrazepam (^3H-FNZ) and ^3H-RO 15-1788 as described by Amiri, Z. et al. Brain Res. 553:155 (1991). Binding parameters were calculated from the equilibrium binding data. […] Binding parameters of the various groups were compared by analysis of variance followed by Student-Newman-Keul's test for multiple comparison. Differences were considered significant if P<0.05.

Benzodiazepine receptors = assay: 3H-flunitrazepam and 3H-RO 15-1788 binding to crude synaptosomal pellets of brains of rats treated for 21 days; format: in vivo, rat
Method: as §4, §5, §6, §7, §8

[2] = case study: withdrawal from benzodiazepine tolerance and sleep in a patient; format: in vivo, human
Excerpt: This example illustrates the action of melatonin in facilitating rapid withdrawal from benzodiazepine tolerance. A person, married with two children, had been suffering from sleep onset insomnia for 10 years, accompanied by frequent and severe migraine attacks. A thorough neurological assessment was negative. Psychiatric or other organic problems also were ruled out.
The patient had been treated with benzodiazepines, tricyclic antidepressants and neuroleptic drugs, as well as biofeedback and relaxation methods with no apparent relief throughout the 10 year period. For the last year, they had been taking 4-8 mg Lorazepam every night, taking a 0.5 mg tablet every half hour or hour throughout the night. This led to difficulties when the patient arose in the morning; they would feel heavily sedated and had problems functioning at work, especially when under pressure. They began to feel that they were losing their memory and ability to concentrate.
as §1, §2, §3

[3] = long term melatonin in two insomnia patients dependent upon flunitrazepam; format: in vivo, human
Method: Two volunteers, […], a person, and […], a person, had each suffered for a number of years from insomnia and/or frequent awakenings during the night accompanied by difficulty in falling asleep again. […] Both patients had been taking 1-2 mg of flunitrazepam orally prior to retiring each evening.
Each patient was weaned off of the flunitrazepam via gradual reduction and simultaneous administration of melatonin over a two month period. During this time, each patient received 2 mg melatonin in controlled release form daily. Since the end of that two month period, each patient has been taking 2 mg oral controlled release melatonin for almost two years.
[…] Each patient also reported reduced fatigue during the daytime within several days after the beginning of the weaning period.

[4] = cerebral cortex, 21 days treatment
[5] = 1 mg controlled release melatonin tablet daily
[6] = 2 mg controlled release melatonin daily, patients

With `COc1ccc2[nH]cc(CCNC(C)=O)c2c1` [melatonin] the “urinary 6-sulfatoxymelatonin, change after therapy” value ([1]; 2 weeks after treatment was stopped, urine every three hours over 36 hours) was “increase in amount and a clear nocturnal peak”, the “Urinary 6-sulfatoxymelatonin after treatment” value ([1]; time 3.00) was 0.74 µg/h and the “Urinary 6-sulfatoxymelatonin after treatment” value ([1]; time 6.00) was 0.36 µg/h. For the same compound, the “Urinary 6-sulfatoxymelatonin after treatment” value ([1]; time 9.00) was 0.21 µg/h, the “Urinary 6-sulfatoxymelatonin after treatment” value ([1]; time 12.00) was 0.01 µg/h and the “Urinary 6-sulfatoxymelatonin after treatment” value ([1]; time 15.00 (first)) was 0.11 µg/h. For the same compound, the “Urinary 6-sulfatoxymelatonin after treatment” value ([1]; time 15.00 (second)) was 0.04 µg/h, the “Urinary 6-sulfatoxymelatonin after treatment” value ([1]; time 18.00) was 0.45 µg/h and the “Urinary 6-sulfatoxymelatonin after treatment” value ([1]; time 21.00) was 0.11 µg/h. For the same compound, the “Urinary 6-sulfatoxymelatonin after treatment” value ([1]; time 24.00) was 1.24 µg/h, the “binding of melatonin compared with the control group” value (melatonin receptors) was “no difference” and the “reduction in specific binding of tritiated RO 15-1788 compared with the control group” value (Benzodiazepine receptors; [4]) was 20%. For the same compound, the “reduction in specific binding of tritiated flunitrazepam compared with the control group” value (Benzodiazepine receptors; [4]) was 20%, the “maximal binding (Bmax) of the RO-15-1788 binding sites” value (Benzodiazepine receptors; medulla-pons, 21 days treatment) was “significantly increased” and the “headaches (patient's report)” value [2, 5] was “subsided gradually”. For the same compound, the “insomnia (patient's claim)” value [2, 5] was “improved remarkably”, the “time until the patient stopped using the benzodiazepine hypnotics altogether” value ([2]; 1 mg controlled release melatonin tablet daily at 8:30 p.m., patient on 4-8 mg Lorazepam nightly) was at most 2 days and the “sleep pattern, repeated actigraph tracing” value ([2]; after 3 weeks of melatonin treatment) was “marked improvement”. The “sleep quality after melatonin therapy was resumed” value ([2]; resumed after 6 months without treatment) was “restored”, the “sleep inducement (subjective report)” value [3, 6] was “good” and the “sleep quality (subjective report)” value [3, 6] was “substantial improvement”. For the same compound, the “residual tiredness in the morning or hangover feeling” value ([3]; 2 mg oral controlled release melatonin) was “has not caused any”, the side effects reported ([3]; 2 mg oral controlled release melatonin for almost two years) was “No side effects” and the “fatigue during the daytime” value ([3]; within several days after the beginning of the weaning period) was “reduced”.

In the case of `CN1C(=O)CN=C(c2ccccc2)c2cc(Cl)ccc21` [diazepam], the “effect on RO 15-1788 and flunitrazepam binding sites” value (Benzodiazepine receptors; [4]) is reported as “did not significantly affect” and the “effect on the melatonin-mediated decrease in specific binding” value (Benzodiazepine receptors; cerebral cortex, diazepam given together with melatonin) is reported as “prevented”.
